Our source for the IC50 and remaining activity values is patent publication US11912710B2 (UPPTHERA, INC., priority 2021, dated 2024).

As usually defined, the IC50 is the concentration that gives 50% inhibition.

What all share (format): cell-based
One test concerns NCI-H526 cell line. The test is described as follows: Cell viability assay for H526 cell line. The following applies: Homo sapiens, NCI-H526, 120 h; H526 cells, 5 days, EZ-Cytox, 3000 nM to 0.46 nM. The method, boiled down:
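NCI-H526 cells exposed to compounds for 5 days in a CO2 incubator; viability read as absorbance at 450 nm after 3 min plate shaking; IC50 derived from treatment response.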

The target of another test is T1, PLK1 (Homo sapiens, UniProt P53350).
T1 construct: endogenous in cells; host or cells: HeLa LgBit (Plk1-HiBit KI): HeLa cells stably expressing LgBit, with HiBit knocked into the endogenous Plk1 locus by CRISPR/Cas9
T1 sequence (P53350 whole entry): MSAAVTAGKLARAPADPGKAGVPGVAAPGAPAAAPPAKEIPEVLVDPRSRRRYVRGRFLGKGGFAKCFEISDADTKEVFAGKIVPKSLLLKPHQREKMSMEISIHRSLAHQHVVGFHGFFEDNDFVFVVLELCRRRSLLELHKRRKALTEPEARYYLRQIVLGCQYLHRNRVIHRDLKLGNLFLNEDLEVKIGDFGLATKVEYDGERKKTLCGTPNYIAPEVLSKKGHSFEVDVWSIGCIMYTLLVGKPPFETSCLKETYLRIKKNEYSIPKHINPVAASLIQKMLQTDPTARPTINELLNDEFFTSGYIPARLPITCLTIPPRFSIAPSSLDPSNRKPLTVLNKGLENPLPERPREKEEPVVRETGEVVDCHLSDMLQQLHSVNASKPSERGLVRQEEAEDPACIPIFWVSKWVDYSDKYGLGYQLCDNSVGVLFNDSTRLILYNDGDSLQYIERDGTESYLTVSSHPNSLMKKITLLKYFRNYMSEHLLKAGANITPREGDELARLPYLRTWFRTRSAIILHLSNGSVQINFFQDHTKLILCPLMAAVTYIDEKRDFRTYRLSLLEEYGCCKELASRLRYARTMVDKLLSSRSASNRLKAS
The test is described as follows: Luciferase assay for PLK1 in HeLa LgBit (Plk1-HiBit KI) cell line. The following applies: 300 nM compound, luminescence after 9 hours, read-out: Activity: ratio of the luminescense value of compound treatment group to DMSO treatment group. Summed up: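 HeLa cells stably expressing LgBit, with HiBit knocked in at the C-terminus of endogenous Plk1, released from a 24 h 2 mM thymidine block and grown 18 h. Endurazine added, then compound at 300 nM; luminescence tracked in real time, expressed as ratio to DMSO.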

The next test deals with MRC-5 cell line. The test is described as follows: Cell viability assay (cytotoxicity) for MRC-5 cell line. The following applies: Homo sapiens, MRC5, 120 h; MRC-5 normal cell line, 5 days, EZ-Cytox, 10000 nM to 1.52 nM; read-out: Activity: IC50 value to MRC-5 cell line (Exemplary Compounds). As for the experimental part:
4. Cell Viability Assay for MRC-5 Cell Line
(1) Culture of MRC-5 Cell Line
Passage of cultured cells was maintained within P15.
(2) Treatment of Compounds of the Present Invention
Then, it was cultured in 37° C.
(3) Cytotoxicity Experiment
CO2 incubator for 4 hours.
Cell Viability Assay for MRC-5 cell line

In the case of `COc1cc(C(=O)NC2CC3(CCN(CC4CCN(c5ccc(N6CCC(=O)NC6=O)cc5)CC4)CC3)C2)ccc1Nc1ncc2c(n1)N(C1CCCC1)CC(F)(F)C(=O)N2C` [Compound 33, 4-((9-cyclopentyl-7,7-difluoro-5-methyl-6-oxo-6,7,8,9-tetrahydro-5H-pyrimido[4,5-b][1,4]diazepin-2-yl)amino)-N-(7-((1-(4-(2,4-dioxotetrahydropyrimidin-1(2H)-yl)phenyl)piperidin-4-yl)methyl)-7-azaspiro[3.5]nonan-2-yl)-3-methoxybenzamide], the IC50 in the test with NCI-H526 cell line was under 30 nM; in the test on MRC-5 cell line, over 10 µM. Moreover, the remaining activity at 0.3 µM at PLK1 was under 70%.
For the compound `COc1cc(C(=O)NC2CCN(C(=O)CCCOc3cccc(C4CCC(=O)NC4=O)n3)CC2)ccc1Nc1ncc2c(n1)N(C1CCCC1)CC(F)(F)C(=O)N2C` (stereo not drawn) [Compound 35, 4-((9-cyclopentyl-7,7-difluoro-5-methyl-6-oxo-6,7,8,9-tetrahydro-5H-pyrimido[4,5-b][1,4]diazepin-2-yl)amino)-N-(1-(4-((6-(2,6-dioxopiperidin-3-yl)pyridin-2-yl)oxy)butanoyl)piperidin-4-yl)-3-methoxybenzamide], the IC50 was under 50 nM in the test on NCI-H526 cell line and over 10 µM in the test on MRC-5 cell line. Also, on PLK1, the remaining activity at 0.3 µM is under 60%.
As to `COc1cc(C(=O)NC2CCN(C(=O)CCN3CCN(c4cccc(C5CCC(=O)NC5=O)n4)CC3)CC2)ccc1Nc1ncc2c(n1)N(C1CCCC1)CC(F)(F)C(=O)N2C` (stereo not drawn) [Compound 36, 4-((9-cyclopentyl-7,7-difluoro-5-methyl-6-oxo-6,7,8,9-tetrahydro-5H-pyrimido[4,5-b][1,4]diazepin-2-yl)amino)-N-(1-(3-(4-(6-(2,6-dioxopiperidin-3-yl)pyridin-2-yl)piperazin-1-yl)propanoyl)piperidin-4-yl)-3-methoxybenzamide], the IC50 with NCI-H526 cell line was under 30 nM; with MRC-5 cell line, over 10 µM. Further, the remaining activity at 0.3 µM on PLK1 was under 60%.
The like results for `COc1cc(C(=O)NC2CCN(C(=O)CCN3CCN(c4ccnc(C5CCC(=O)NC5=O)c4)CC3)CC2)ccc1Nc1ncc2c(n1)N(C1CCCC1)CC(F)(F)C(=O)N2C` (stereo not drawn) [Compound 37, 4-((9-cyclopentyl-7,7-difluoro-5-methyl-6-oxo-6,7,8,9-tetrahydro-5H-pyrimido[4,5-b][1,4]diazepin-2-yl)amino)-N-(1-(3-(4-(2-(2,6-dioxopiperidin-3-yl)pyridin-4-yl)piperazin-1-yl)propanoyl)piperidin-4-yl)-3-methoxybenzamide] were, in that order, under 50 nM, over 10 µM and under 60%.
As for `COc1cc(C(=O)NC2CC3(CCN(CC4CCN(c5ccc(C6CCC(=O)NC6=O)nc5)CC4)CC3)C2)ccc1Nc1ncc2c(n1)N(C1CCCC1)CC(F)(F)C(=O)N2C` (stereo not drawn) [Compound 39, 4-((9-cyclopentyl-7,7-difluoro-5-methyl-6-oxo-6,7,8,9-tetrahydro-5H-pyrimido[4,5-b][1,4]diazepin-2-yl)amino)-N-(7-((1-(6-(2,6-dioxopiperidin-3-yl)pyridin-3-yl)piperidin-4-yl)methyl)-7-azaspiro[3.5]nonan-2-yl)-3-methoxybenzamide], the results for the IC50 with NCI-H526 cell line and with MRC-5 cell line were under 30 nM and over 10 µM, respectively. In addition, at PLK1, the remaining activity at 0.3 µM was under 60%.
For `COc1cc(C(=O)NC2CC3(CCN(CCC4CCN(c5ccc(C6CCC(=O)NC6=O)cc5F)CC4)CC3)C2)ccc1Nc1ncc2c(n1)N(C1CCCC1)CC(F)(F)C(=O)N2C` (stereo not drawn) [Compound 45, 4-((9-cyclopentyl-7,7-difluoro-5-methyl-6-oxo-6,7,8,9-tetrahydro-5H-pyrimido[4,5-b][1,4]diazepin-2-yl)amino)-N-(7-(2-(1-(4-(2,6-dioxopiperidin-3-yl)-2-fluorophenyl)piperidin-4-yl)ethyl)-7-azaspiro[3.5]nonan-2-yl)-3-methoxybenzamide], in that order: under 30 nM, 8.68 µM and under 60%.
